Laboratory results reported in PMC12444472, “BCI inhibits MKP3 by targeting the kinase-binding domain and disrupting ERK2 interaction” (The Journal of Biological Chemistry, 2025).
Values joined by “and” are separate entries in the source; they are usually repeats but may differ in a detail not shown here. Equal entries are not always repeated.

Assays:
MKP3^CD = target: T1, MKP3^CD (Homo sapiens, UniProt Q16828); experiment: NMR titration (1H-15N HSQC); type: binding
T1 construct: ^15N-labeled MKP3^1–154, MKP3^14–152, MKP3^204–350; made in house; host or cells: Escherichia coli BL21(DE3)
T1 sequence (Q16828 204-350): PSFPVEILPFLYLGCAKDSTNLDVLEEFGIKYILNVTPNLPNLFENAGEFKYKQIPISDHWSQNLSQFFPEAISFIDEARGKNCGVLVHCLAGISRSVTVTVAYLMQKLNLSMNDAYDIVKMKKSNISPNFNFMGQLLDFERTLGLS
Protocol: NMR data were collected at 298 K on a Bruker AVANCE NEO 800 MHz spectrometer (Bruker BioSpin) equipped with a ^1H&^19F/^13C/^15N TCI cryogenic probe. Backbone resonances of MKP3^1–154 were assigned using 2D/3D experiments, including 2D ^1H–^15N HSQC and 3D ^1H/^13C/^15N CBCA(CO)NH, HNCACB, HNCO, and HN(CA)CO, performed with uniformly ^13C/^15N labeled protein at a final concentration of 0.39 mM in buffer containing 20 mM imidazole (pH 6.0), 100 mM NaCl, 5 mM DTT, 0.5 mM EDTA, and 5% (v/v) D2O. The buffer used for backbone resonance assignment was similar to that used for the previously reported NMR structure ([15]). NMR titration experiments were conducted using ^15N-labeled MKP3^1–154, MKP3^14–152, MKP3^204–350, MKP1^1–141, MKP2^5–159, MKPX^1–140, MKP4^1–143, and MKP5^139–287. 2D ^1H–^15N HSQC spectra of ^15N-labeled MKPs^KBD (0.1 mM) were acquired in the absence and presence of BCI (50 mM stock in DMSO-d6) in buffer containing 50 mM KH2PO4–K2HPO4 (pH 7.2), 100 mM KCl, 1 mM Tris(2-carboxyethyl)phosphine hydrochloride, 1 mM EDTA, and 5% (v/v) D2O. Control experiments, in which only the corresponding volume of DMSO-d6 was added to ^15N-labeled proteins, were performed to exclude possible effects of DMSO on the interactions. For ^15N T1 measurements, the relaxation delay times were set to 20 (×2), 100, 200 (×2), 300, 400, 600 (×2), 800, 1200, and 1600 ms. For ^15N T2 measurements, the delay times were 7.84, 15.68 (×2), 23.52, 31.36 (×2), 39.2, 47.04 (×2), 54.88, 62.72, 78.4, 94.08, and 109.76 ms. The relaxation rates R1 (1/T1) and R2 (1/T2) for each residue were determined by fitting the peak intensities from spectra acquired at the various delay times to a single-exponential decay function: I/I0 = exp(-R1,2·t), where I0 is the intensity at t = 0, and I is the intensity at a delay time t. Repeated measurements were used to estimate the uncertainties of the R1 and R2 values via Monte Carlo analysis. Heteronuclear steady-state ^1H–^15N NOE experiments were acquired in an interleaved mode, with 5 s of ^1H saturation for NOE build-up and 5 s of relaxation delay for the reference spectra. Repeated experiments were performed to estimate uncertainties, and the propagated error for each NOE value was calculated using the following equation: σNOE = NOE × ((σsat/Isat)^2+(σunsat/Iunsat)^2)^1/2, where σsat and σunsat are the SDs of the saturated and unsaturated spectra, respectively, and Isat and Iunsat are the corresponding signal intensities. NMR data were processed using TopSpin 4.1.1 (Bruker BioSpin) or NMRPipe ([54]) and analyzed with POKY ([55]).

MKP1^KBD = target: T2, MKP1^KBD (Homo sapiens, UniProt P28562); experiment: MST affinity measurement; details: one-site binding model, mean ± SD of three experiments
T2 construct: MKP1(1–141) (MKP1^KBD); made in house; host or cells: Escherichia coli BL21(DE3)
T2 sequence (P28562 1-141): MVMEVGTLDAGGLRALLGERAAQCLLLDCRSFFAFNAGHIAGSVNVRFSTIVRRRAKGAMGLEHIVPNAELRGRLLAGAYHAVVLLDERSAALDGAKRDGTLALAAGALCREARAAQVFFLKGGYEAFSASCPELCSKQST
Protocol: (§1) MST measurements were performed using fluorescently labeled proteins and the inhibitor BCI (CAS: 1245792-51-1; TargetMol) on a Monolith instrument (NanoTemper Technologies). The RED–Tris–NTA second-generation dye was dissolved in MST buffer (20 mM Hepes, pH 7.4, 200 mM NaCl, and 0.05% Tween-20) to prepare a 5 μM stock solution. Fluorescent labeling of MKP proteins followed the standard protocol of the MO-L018 RED–Tris–NTA protein labeling kit, leveraging the His-tag–dye interaction.
(§2) The BCI compound was prepared as a 600 to 750 μM stock solution in MST buffer with 10% DMSO to enhance solubility, followed by a 16-point serial dilution. The diluted BCI solutions were thoroughly mixed with labeled MKP proteins (50 nM) at a 1:1 volume ratio, yielding a final volume of 10 μl. The reaction mixtures were incubated in the dark for 10 min at room temperature before being loaded into standard glass capillaries. Measurements were carried out on the Monolith instrument (100% LED, 40% IR laser power) with a 20 s laser on time. The normalized fluorescence values from triplicate measurements were averaged at each concentration and fitted to a 1:1 binding model using the KD model in MO.Affinity software (v3.0.5, NanoTemper Technologies) to determine the binding affinities between MKP proteins and the BCI inhibitor. The final reported Kd value represents the mean ± SD of Kd values obtained from three independent experiments, each fitted separately.

MKPX^KBD = target: T3, MKPX^KBD (Homo sapiens, UniProt Q16829); experiment: MST affinity measurement; details: one-site binding model, mean ± SD of three experiments
T3 construct: MKPX(1–140) (MKPX^KBD); made in house; host or cells: Escherichia coli BL21(DE3)
T3 sequence (Q16829 1-140 isoform Q16829-2): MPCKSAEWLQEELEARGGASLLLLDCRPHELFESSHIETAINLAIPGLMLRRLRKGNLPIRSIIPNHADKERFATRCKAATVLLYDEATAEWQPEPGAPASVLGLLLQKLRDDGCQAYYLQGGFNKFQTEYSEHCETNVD
Protocol: as §1, §2

MKP2^KBD = target: T4, MKP2^KBD (Homo sapiens, UniProt Q13115); experiment: MST affinity measurement; details: one-site binding model, mean ± SD of three experiments
T4 construct: MKP2(5–159) (MKP2^KBD); made in house; host or cells: Escherichia coli BL21(DE3)
T4 sequence (Q13115 5-159): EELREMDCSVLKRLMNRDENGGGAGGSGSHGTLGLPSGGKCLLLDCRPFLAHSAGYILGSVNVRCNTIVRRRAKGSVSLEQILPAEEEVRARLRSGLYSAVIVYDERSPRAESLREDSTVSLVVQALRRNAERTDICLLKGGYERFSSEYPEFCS
Protocol: as §1, §2

## O=C1/C(=C/c2ccccc2)C(NC2CCCCC2)c2ccccc21 (centres unmarked) [BCI, (E)-2-benzylidene-3-(cyclohexylamino)-2,3-dihydro-1H-inden-1-one]
MKP3^CD; excess BCI, without DMSO (low-activity state)
  perturbation of NMR spectrum: no detectable interaction
MKP3^CD; with 25% DMSO (high-activity state)
  perturbation of NMR spectrum: failed to perturb the spectrum
MKP1^KBD
  Kd: ~73.1 µM and 73.1 µM
MKPX^KBD
  Kd: ~14.1 µM and 14.1 µM
MKP2^KBD
  Kd: ~49 µM and 49 µM
